Experimental findings from US6642180B1, “Biphenyl-substituted cyclic ketoenols as pesticides” (Bayer Aktiengesellschaft, priority 1999, dated 2003) are described below.

Assay type in all cases: in vivo
In experiment [1] the test system is larvae of the mustard beetle (Phaedon cochleariae). The experiment in a line: Phaedon-larvae test. The following applies: cabbage leaves dipped. As to the method:
Phaedon-larvae Test Solvent: 7 parts by weight of dimethylformamide Emulsifier: 1 part by weight of alkylaryl polyglycol ether To produce a suitable preparation of active compound, 1 part by weight of active compound is mixed with a stated amount of solvent and emulsifier, and the concentrate is diluted with emulsifier-containing water to the desired concentration. Cabbage leaves (Brassica oleracea) are treated by being dipped into the preparation of active compound of the desired concentration and are populated with larvae of the mustard beetle (Phaedon cochleariae) while the leaves are still moist.

In a further experiment the test system is Meloidogyne incognita. The experiment is described as follows: Meloidogyne test. The conditions noted are these: sand, Meloidogyne incognita egg/larvae suspension, lettuce. The protocol:
Solvent: 7 parts by weight of dimethylformamide
(§1) Emulsifier: 1 parts by weight of alkylaryl polyglycol ether
To produce a suitable preparation of active compound, 1 part by weight of active compound is mixed with the stated amounts of solvent and emulsifier, and the concentrate is diluted with water to the desired concentration.
Containers are filled with sand, solution of active compound, Meloidogyne incognita-egg/larvae suspension and lettuce seeds. The lettuce seeds germinate and the plants develop. On the roots, galls are formed.
After the desired period of time, the nematicidal action is determined in % by the gall formation. 100% means that no galls were found; 0% means that the number of galls on the treated plants corresponds to that of the untreated control.

In the next experiment the test system is Abutilon. The experiment in a line: Pre-emergence test (greenhouse). The conditions noted are these: 250 g ai./ha, after 3 weeks. As to the method: (§2) Solvent: 5 parts by weight of acetone
(§3) Emulsifier: 1 part by weight of alkylaryl polyglycol ether
(§4) To produce a suitable preparation of active compound, 1 part by weight of active compound is mixed with the stated amount of solvent, with the stated amounts of emulsifiers added and the concentrate is diluted with water to the desired concentration.
(§5) Seeds of the test plants are sown in normal soil. After about 24 hours, the soil is sprayed with the preparation of active compound such that the particular amounts of active compound desired are applied per unit area. The concentration of the spray liquor is chosen such that the particular amounts of active compound desired are applied in 1000 l of water/ha.
(§6) After 3 weeks, the degree of damage to the plants is rated in % damage in comparison to the development of the untreated control.
(§7) 0%=no effect (like untreated control)

Experiment [2] relates to Alopecurus. The experiment in a line: Pre-emergence test (greenhouse). The conditions noted are these: 250 g ai./ha, after 3 weeks. As to the method:
as §2, §3, §4, §5, §6, §7

The next experiment relates to Avena fatua. The experiment is described as follows: Pre-emergence test (greenhouse). The conditions noted are these: 250 g ai./ha, after 3 weeks. The protocol: as §2, §3, §4, §5, §6, §7
Experiment [3] has as its system Echinochloa. The experiment is described as follows: Pre-emergence test (greenhouse). The following applies: 250 g ai./ha, after 3 weeks. The protocol: as §2, §3, §4, §5, §6, §7
Experiment [4] relates to Setaria. The experiment in a line: Pre-emergence test (greenhouse). The following applies: 250 g ai./ha, after 3 weeks. As to the method:
as §2, §3, §4, §5, §6, §7

The subject of experiment [5] is Alopecurus. The experiment is described as follows: Post-emergence test (greenhouse). The conditions noted are these: 250 g ai./ha, after three weeks. As to the method:
as §2, §1
(§8) To produce a suitable preparation of active compound, 1 part by weight of active compound is mixed with the stated amount of solvent, the stated amount of emulsifier is added and the concentrate is diluted with water to the desired concentration.
(§9) Test plants of a height of 5-15 cm are sprayed with the preparation of active compound such that the particular amounts of active compound desired are applied per unit area. The concentration of the spray liquor is chosen such that the particular amounts of active compound desired are applied in 1000 l of water/ha.
(§10) After three weeks, the degree of damage to the plants is rated in % damage in comparison to the development of the untreated control.
(§11) 0% no effect (like untreated control)
(§12) Post-emergence/greenhouse

The test system of experiment [6] is Echinochloa. The experiment in a line: Post-emergence test (greenhouse). The conditions noted are these: 250 g ai./ha, after three weeks. The protocol:
as §2, §1, §8, §9, §10, §11, §12

For experiment [7], the system named is Setaria. The experiment in a line: Post-emergence test (greenhouse). The conditions noted are these: 250 g ai./ha, after three weeks. As to the method: as §2, §1, §8, §9, §10, §11, §12
Another experiment relates to Sugar beet. The experiment in a line: Post-emergence test (greenhouse). The conditions noted are these: 250 g ai./ha, after three weeks. As to the method:
as §2, §1, §8, §9, §10, §11, §12

`COC(=O)N(C)COC1=C(c2c(C)cc(-c3ccc(Cl)cc3)cc2C)C(=O)CC(C)(C)C1` [Example I-8-1]: in experiment [1], the “activity (kill of beetle larvae)” value was “good activity”. Besides, in the experiment with Meloidogyne incognita, the “activity (nematicidal action by gall formation)” value was “good activity”. Moreover, the “degree of damage to the plants, Abutilon” value in the experiment with Abutilon was determined as 80%. Besides, the “degree of damage to the plants, Alopecurus” value is given as 90% with Alopecurus [2] and 80% in the experiment with Alopecurus [5]. The “degree of damage to the plants, Avena fatua” value in the experiment on Avena fatua is recorded as 90%. Further, the “degree of damage to the plants, Echinochloa” value in the experiment with Echinochloa [3] and in the experiment on Echinochloa [6] was 100% throughout. For the same molecule, the “degree of damage to the plants, Setaria” value in the experiment with Setaria [4] and in the experiment on Setaria [7] was 100% throughout. Besides, the “degree of damage to the plants, Sugar beet” value with Sugar beet is 0%.
